The values that follow are results of earlier work, collected in patent publication US8962267B1, “Method for predicting the response of non-small cell lung cancer patients to targeted pharmacotherapy” (Pamgene B.V., priority 2009, dated 2015).

In the data set the test system is NSCLC. Particulars: second-line treatment of NSCLC patients, clinical trials, versus control.

With `CC(=O)O[C@@]12CO[C@@H]1C[C@H](O)[C@@]1(C)C(=O)[C@H](O)C3=C(C)[C@@H](OC(=O)[C@H](O)[C@@H](NC(=O)OC(C)(C)C)c4ccccc4)C[C@@](O)([C@@H](OC(=O)c4ccccc4)[C@H]21)C3(C)C` [docetaxal, docetaxel], the overall survival is 7.5 months.
With `C#Cc1cccc(Nc2ncnc3cc(OCCOC)c(OCCOC)cc23)c1` [erlotinib], the overall survival is 6.7 months.
Take `Nc1nc2[nH]cc(CCc3ccc(C(=O)N[C@@H](CCC(=O)O)C(=O)O)cc3)c2c(=O)[nH]1` [pemetrexed]: the overall survival is on record as 8.3 months.
